Experimental data from US8241903B2, “Catecholamine receptor modulation” (Yeda Research and Development Co., Ltd., priority 2006, dated 2012).

Assays:
human CD34+ cells [1] = assay: Engraftment of ex-vivo treated human CD34+ cells in bone marrow of irradiated NOD/SCID mice; details: for engraftment of human CD34+ cells in NOD/SCID mice: cord blood CD34+ cells incubated 2 days with GM-CSF 5 ng/ml with or without the neurotransmitter prior to injection; for engraftment in the murine BM compared to control cells: MPB CD34+ cells incubated 2-4 days with 1 μM SKF or 100 ng/ml 7-OH-DPAT before injection, human CD45 in BM 5 weeks post injection
Description: (ii) Mice. […] Eight-ten week old mice were sublethally irradiated (375 cGy, from a 60 Co source) and transplanted with human cells as indicated (2×10^5 cells/mouse) 24 hours post irradiation.
(iii) Cell transplantation. Cells were injected into the tail vein of NOD/SCID in 0.5 ml of RPMI supplemented with 10% FCS.
(iv) Assessment of cell engraftment. Recipient mice were irradiated with a sublethal (350 cGy) dose from a Cesium source 24 hours prior to injection of cells. MPB or CB CD34^+ cells (2-3×10^5/mouse) were treated with SKF or 7-OH-DPAT for 2-4 days and injected i.v. into NOD/SCID mice. Mice were sacrificed 5-6 weeks post transplantation of human cells for assessing human cell engraftment assessment. BM (femur, tibia and pelvis bones flushed with a syringe), spleen, and peripheral blood cells were harvested and resuspended into single cell suspensions. WBCs were counted and in some experiments MNCs were isolated from samples by standard separation on Ficol-Hypaque (Pharmacia Biotech). Human cell engraftment was assayed by flow cytometry (FACSCalibur, BD). Cells were triple-stained with CD45-FITC, CD38-PE and CD34-APC (Becton Dickinson) antibodies. Human plasma and mouse IgG were used to block Fc receptors. Human leukocytes were gated according to their expression of the pan-leukocyte marker CD45, and amongst this population the percentage of CD34^+/CD38^−/low primitive cells was determined.
To assess the effect of dopamine receptor on engraftment of stem cells, mobilized peripheral blood (MPB) enriched human CD34^+ cells treated ex-vivo with the dopamine agonists SKF or 7-OH-DPAT were transplanted in NOD/SCID mice and engraftment of human cell in the murine BM was determined. Briefly, 1-3×10^5 MPB CD34^+ cells were incubated for 2-4 days at 37° C. in RPMI supplemented with 10% FCS, penicillin streptomycin and L-Glutamine and treated with the dopamine receptor agonists (1 μM) SKF or (100 ng/ml) 7-OH-DPAT or were left untreated. After the incubation, the cells were injected in irradiated NOD/SCID mice. The mice were sacrificed 5 weeks post injection, BM was extracted and the BM cells were labeled for the human CD45 marker.
The experimental conditions were similar to those conducted with the dopamine agonists. […] For engraftment assay, cells were incubated for 2 days in RPMI supplemented with GM-CSF 5 ng/ml.

cord blood CD34+ cells [2] = assay: Progenitor colony forming assay (CFU) in semi solid cultures; format: cell-based, human; details: for clonogenic capacity of human cord blood CD34+ cells: epinephrine 10 nM, norepinephrine 1 and 10 nM added to the methyl cellulose; for colony (CFU-C) formation in the presence of GM-CSF: IL-3 plus GM-CSF 5 ng/ml, scored day 14; for colony (CFU-C) formation in the presence of GM-CSF / colony formation, culture not supplemented with myeloid cytokines: SKF 1 μM or 7-OH-DPAT 100 nM; for colony formation, culture not supplemented with myeloid cytokines: no GM-CSF or G-CSF
Description: (vii) Progenitor colony forming assay (CFU). In order to detect the levels of human progenitors, semisolid cultures were carried out as previously described (Peled et al. 1999). In brief, CD34^+ cells (1×10^3 cells/ml) were plated in 0.9% methylcellulose (Sigma), 30% FCS, 5×10^−5M 2ME, 50 ng/ml SCF, 5 ng/ml IL-3, 5 ng/ml GM-CSF (R&D), and 2 u/ml Erythropoietin (Orto Bio Tech, Don Mills, Canada) together with the dopamine agonists/antagonist. In some experiments the cells were pre-incubated for 4 days with the agonists/antagonist prior to plating in the semisolid culture. The cultures were incubated at 37° C. in a humidified atmosphere containing 5% CO2 and scored 14 days later for myeloid or erythroid colonies by morphologic criteria. In experiments where the level of in vivo engraftment by primitive human cells was determined, the semisolid media contained 15% human plasma and 15% FCS.
GM-CSF and G-CSF are known for their role in myeloid differentiation and in stem cell regulation. It is common practice to add these cytokines to progenitor colony forming assay (CFU) in order to facilitate detection of human progenitors. […] We therefore tested whether up regulation of dopamine receptor levels affects progenitor development in vitro. For this purpose cord blood CD34^+ cells were seeded in semi solid cultures (1×10^3 cells/ml in 1 ml) supplemented with the cytokines Epo (2 u/ml; Orto Bio Tech, Don Mills, Canada.), SCF (50 ng/ml; R&D) and IL-3 (5 ng/ml R&D) and with GM-CSF (5 ng/ml; R&D) or G-CSF (100 ng/ml; Roche) in order to up regulate dopamine receptor levels. To evaluate the effect of increased dopamine receptor activity, the semi solid cultures were supplemented with dopamine agonist SKF (1 μM) or 7-OH-DPAT (100 nM) or with medium as a control.
Next, the effect of the adrenergic neurotransmitters epinephrine (10 nM) and norepinephrine (1 and 10 nM) on proliferation of human CD34+ cells was assessed. The experimental conditions were similar to those conducted with the dopamine agonists. For colony assay, epinephrine and norepinephrine were added to the methyl cellulose. […] For engraftment assay, cells were incubated for 2 days in RPMI supplemented with GM-CSF 5 ng/ml.

human CD34+ cells [3] = test system: human CD34+ cells
Description: (viii) Chemotaxis assays. Chemotaxis experiments were assayed using transwells (6.5 mm diameter, 5 μm pore; Corning Inc., Corning, N.Y.) as previously described (1). […] Migrating cells were counted using FACSCalibur (Becton Dickinson).
We tested the effect of dopamine (1 nM-1 uM) on in vitro migration potential of immature human CD34^+ cells (50,000-100,000 cells in 100 ul). […] Since dopamine is highly oxidative, its agonists were used, particularly in treatments requiring longer incubation periods (FIG. 6D).

cord blood CD34+ cells [4] = assay: Polarization of CB CD34+ cells upon adhesion to hyaluronic acid; format: cell-based, human; details: CB CD34+ cells on HA-coated cover slips, 2 hours at 37° C.
Description: Enriched CB CD34^+ cells (1×10^5 to 2×10^5 cells per well) were plated on HA-coated cover slips for 2 hours at 37° C., either untreated or treated with SKF or 7-OH-DPAT. Samples were processed for microscopic observation as described (Goichberg et al., 2001). In brief, the adherent cells were fixed with 3% paraformaldehyde (Merck, Darmstadt, Germany) and, if indicated, permeabilized in 0.5% Triton X-100 (Sigma-Aldrich). Samples were indirectly immunolabeled at room temperature in a humidified chamber with using purified polyclonal rabbit anti human Dopamine D5 antibodies (Calbiochem, Nottingham, UK) (MCAP89; Serotec). The secondary antibodies used were Goat anti rabbit Alexa 488 conjugated (Molecular Probes, Eugene Oreg.). Phalloidin—TRITC used to detect polymerized actin, was purchased from Sigma-Aldrich. Following labeling, cells were mounted in Elvanol (Mowiol 4-88, Hoechst, Frankfurt, Germany). Immunofluorescence images were acquired using scientific-grade CCD camera and processed by the Delta Vision system using Resolve 3D software (Applied Precision, Issaquah, Wash.).
We assessed changes in morphology of cord blood CD34^+ cells upon adhesion to hyaluronic in the presence or the absence of the dopamine agonists SFK or 7-OH-DPAT.

[5] = test system: murine bone marrow mononuclear cells; assay: Spontaneous migration of bone marrow mononuclear cells from treated mice; format: in vivo; details: cells from mice treated with G-CSF plus agonist compared to G-CSF alone
BM cells = assay: Bone marrow cellularity (WBC) after 5 daily i.p. injections in mice; format: in vivo; details: WBC on day 5, 4 hrs after last injection
Description: For this purpose, mice were injected with 5 daily i.p injections of the dopamine agonist 7-OH-DPAT (1.5 mg/kg) or antagonist flupenthixol 5 (3 mg/kg) or remained untreated and the bone marrow cell mass was determined. On day 5, 4 hrs after last injection, mice were sacrificed, BM cells were flushed from BM (with a syringe), and White Blood Count (WBC) was determined.

[6] = test system: dopamine receptors type 3 and 5 on the surface of CD34+ enriched cells; assay: Flow cytometry of dopamine receptor expression on CD34+ cells from BM of G-CSF treated or untreated donors; format: in vivo, human; details: CD34+ cells from BM of G-CSF treated healthy donors vs BM of untreated healthy donors
Source text: (i) Human cells and reagents. Human cord blood (CB), adult G-CSF mobilized peripheral blood (MPBL) and BM from normal or G-CSF treated donors mononuclear cells were obtained after informed consent in accordance with procedures approved by the human ethics committee of the Weizmann Institute of Science. The cell surface protein CD34 is frequently used as a marker for positive selection of human hematopoietic stem/progenitor cells in research and in transplantation. CD34^+ cell enrichment was performed using magnetic bead separation as previously described (Spiegel A et al Blood 2004; 2900-7). Cells were cultured in RPMI 1640 medium supplemented with 10% heat-inactivated FCS, antibiotics and glutamine.
Human CB cells were obtained from full-term deliveries after informed consent. Blood samples were diluted 1:1 in PBS. […]
(vi) Flow cytometry analysis. […] Human leukocytes were gated according to their expression of the pan-leukocyte marker CD45, and amongst this population the percentage of CD34+/CD38−/low primitive cells was determined. […] After staining, cells were washed in FACS buffer and analyzed by fluorescence-activated cell sorting (FACSCalibur and CellQuest software, Becton Dickinson).
Expression of dopamine receptors type 3 and 5 was evaluated on the surface of CD34^+ enriched cells that were obtained from different sources. […]

[7] = test system: dopamine receptor 3 and 5 on human CD34+/CD38-/low cells; assay: Dopamine receptor expression on human cells from BM of G-CSF treated chimeric NOD/SCID mice; format: in vivo, human cells in NOD/SCID mice; details: 5 daily s.c. injections of G-CSF
Description: Mobilization in NOD/SCID mice engrafted with human cells was performed as follows: mice received a daily subcutaneous injection of G-CSF (Filgrastim, […] in […] 0.9% NaCl, 5% fetal calf serum (FCS), pH 4.55) for 5 consecutive days and were sacrificed 4 hrs after the last injection. Peripheral blood from mice asphyxied with dry ice was collected by cardiac aspiration in heparinized tubes. Number of WBC in the peripheral blood was determined.
(vi) Flow cytometry analysis. Phenotypes of human and murine cells were examined by immunostaining, followed by flow cytometry analysis on FACSCalibur (Becton Dickinson, San Jose, Calif.) with CellQuest software. Single cell suspension were prepared in PBS containing 0.01% sodium azide and 1% FCS. Human plasma and mouse IgG were used to block human and murine Fc-receptors. Isotype-matched control antibodies were used to exclude false positive cells. Staining was performed in 4° C. for 30 minutes. […] Human leukocytes were gated according to their expression of the pan-leukocyte marker CD45, and amongst this population the percentage of CD34+/CD38−/low primitive cells was determined. […] After staining, cells were washed in FACS buffer and analyzed by fluorescence-activated cell sorting (FACSCalibur and CellQuest software, Becton Dickinson). […]

[8] = test system: beta-2 adrenergic receptor on CD34+ cells; assay: Flow cytometry of beta-2 adrenergic receptor on CD34+ cells; parameters: species or system human; details: in vivo G-CSF stimulated (mobilized) peripheral blood CD34+ cells
Source text: We carried out experiments in order to test whether CD34+ cells are regulated by additional catecholamines neurotransmitters.

CNC[C@H](O)c1ccc(O)c(O)c1 [epinephrine]
engraftment of human CD34+ cells in NOD/SCID mice (human CD34+ cells [1]): enhance engraftment
clonogenic capacity of human cord blood CD34+ cells (cord blood CD34+ cells [2]): increase the clonogenic capacity

NCCc1ccc(O)c(O)c1 [dopamine]
migration of cord blood CD34+ enriched cells towards dopamine in the lower chamber (human CD34+ cells [3]; cells pre-treated with GM-CSF, dopamine 10 nM (tested 1 nM-1 uM)): significantly increased
migration of cord blood CD34+ cells towards dopamine, cells not pre-treated with GM-CSF (human CD34+ cells [3]; no GM-CSF pre-treatment, data not shown): not detected

CN1CCN(C2=Nc3cc(Cl)ccc3Nc3ccccc32)CC1 [clozapine]
decrease in engraftment (human CD34+ cells [1]; MPB CD34+ cells pretreated with antagonist prior to injection, 5 weeks): 50%

Cl.Oc1cc2c(cc1O)C(c1ccccc1)CNCC2 (single isomer, unassigned; (+)) [SKF, (+)-1-phenyl-2,3,4,5-tetrahydro(1H)-3-benzazepine-7,8-diol hydrochloride]
engraftment in the murine BM compared to control cells (human CD34+ cells [1]): 2 fold
colony (CFU-C) formation in the presence of GM-CSF (cord blood CD34+ cells [2]; CB CD34+ cells, Epo, SCF): augmented
colony formation, culture not supplemented with myeloid cytokines (cord blood CD34+ cells [2]; CB CD34+ cells): No increase
percent of cells that exhibited polarized morphology compared to control (cord blood CD34+ cells [4]): more than doubled
spontaneous migration of murine bone marrow mononuclear cells [5]: higher spontaneous migration

OCCN1CCN(CCC=C2c3ccccc3Sc3ccc(C(F)(F)F)cc32)CC1 [flupenthixol, 2-[4-[3-[2-(trifluoromethyl)thioxanthen-9-ylidene]propyl]piperazin-1-yl]ethanol]
decrease in BM cellularity (BM cells; flupenthixol 3 mg/kg): 25%

CCCN(CCC)C1CCc2ccc(O)cc2C1 (stereo not drawn) [7-OH-DPAT, 7-hydroxy-2-dipropylaminotetralin]
engraftment in the murine BM compared to control cells (human CD34+ cells [1]): 2 fold
colony formation in the presence of G-CSF (cord blood CD34+ cells [2]; CB CD34+ cells, Epo, SCF, IL-3 plus G-CSF 100 ng/ml, 7-OH-DPAT 100 nM): the largest increase
colony (CFU-C) formation in the presence of GM-CSF (cord blood CD34+ cells [2]; CB CD34+ cells, Epo, SCF): increased colony formation
colony formation, culture not supplemented with myeloid cytokines (cord blood CD34+ cells [2]; CB CD34+ cells): No increase
increase in BM cellularity (BM cells; 7-OH-DPAT 1.5 mg/kg): 50%
percent of cells that exhibited polarized morphology compared to control (cord blood CD34+ cells [4]): more than doubled
spontaneous migration of murine bone marrow mononuclear cells [5]: higher spontaneous migration

NC[C@H](O)c1ccc(O)c(O)c1 [norepinephrine]
engraftment of human CD34+ cells in NOD/SCID mice (human CD34+ cells [1]): enhance engraftment
clonogenic capacity of human cord blood CD34+ cells (cord blood CD34+ cells [2]): increase the clonogenic capacity
migration of CD34+ cells towards norepinephrine in the lower well (human CD34+ cells [3]; CB (GM-CSF pretreated) or MPB CD34+ cells, 1 or 10 nM norepinephrine): increased migration

B1: G-CSF: myeloid cytokine, granulocyte colony-stimulating factor (Filgrastim, Roche) (protein, chains of the INN, looked up)
chain: MTPLGPASSLPQSFLLKCLEQVRKIQGDGAALQEKLCATYKLCHPEELVLLGHSLGIPWAPLSSCPSQALQLAGCLSQLHSGLFLYQGLLQALEGISPELGPTLDTLQLDVADFATTIWQQMEELGMAPALQPTQGAMPAFASAFQRRAGGVLVASHLQSFLEVSYRVLRHLAQP
expression of dopamine receptor on the surface of enriched CD34+ cells, higher than untreated donors [6]: 2-4 folds
level of dopamine receptor expression in the CD34+/CD38-/low cell population [7]: increase
levels of β2-adrenergic receptor on CD34+ cells [8]: higher levels
